Assay results taken from patent US8119624B2, “Fused phenyl amido heterocyclic compounds” (Pfizer Inc., priority 2006, dated 2012).

Target: T1, Full-length glucokinase (beta cell isoform) (Homo sapiens, UniProt P35557)
T1 construct: Full-length glucokinase (beta cell isoform) was His-tagged at N-terminus; His tag (N); made in house
T1 sequence (P35557 1-465): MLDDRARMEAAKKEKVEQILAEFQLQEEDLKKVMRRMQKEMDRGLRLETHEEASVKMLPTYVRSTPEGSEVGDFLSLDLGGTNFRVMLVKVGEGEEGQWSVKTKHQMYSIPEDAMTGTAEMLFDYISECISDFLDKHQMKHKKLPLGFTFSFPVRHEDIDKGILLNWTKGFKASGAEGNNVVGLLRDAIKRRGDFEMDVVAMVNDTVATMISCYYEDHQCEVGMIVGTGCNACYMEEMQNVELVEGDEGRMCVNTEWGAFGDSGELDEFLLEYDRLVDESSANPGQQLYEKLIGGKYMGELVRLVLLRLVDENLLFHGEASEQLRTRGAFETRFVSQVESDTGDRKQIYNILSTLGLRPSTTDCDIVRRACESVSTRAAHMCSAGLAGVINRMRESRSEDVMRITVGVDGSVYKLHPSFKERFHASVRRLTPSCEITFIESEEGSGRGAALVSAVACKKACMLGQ
Assay: Glucokinase biochemical assay (PK/LDH-coupled, NADH depletion at 340 nm): % activation, EC50, % max activation
Conditions: 5 mM glucose; for activation at 10 µM: 10 uM compound, % Activation=(Va/Vo−1)×100, read-out: % Activation at 10 uM; for EC50: GK activation, read-out: EC50; for Emax: fitted maximum activation, read-out: % Max Activation
How it was run: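 Activation expressed as (Va/Vo−1)×100, where initial rates with and without compound come from NADH depletion at 340 nm over 200–900 s. Enzyme is His-tagged human beta-cell GK, full length, run at room temperature in HEPES buffer with 1 mM ATP and 5 mM glucose. DMSO 1%.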

| Compound | activation at 10 µM [%] | EC50 [nM] | Emax [%] |
| --- | --- | --- | --- |
| Cn1ncc(NC(=O)c2cc(Oc3ccc(-c4ncon4)c(F)c3)c3c(c2)OC(C)(C)C3)n1 [Example 186, 4-(3-Fluoro-4-[1,2,4]oxadiazol-3-yl-phenoxy)-2,2-dimethyl-2,3-dihydro-benzofuran-6-carboxylic acid (2-methyl-2H-[1,2,3]triazol-4-yl)-amide] | 135 | 160 | 234 |
| Cn1ncc(NC(=O)c2cc(Oc3ccc(-c4ncon4)cc3)c3c(c2)OC(C)(C)C3)n1 [Example 188, 2,2-Dimethyl-4-(4-[1,2,4]oxadiazol-3-yl-phenoxy)-2,3-dihydro-benzofuran-6-carboxylic acid (2-methyl-2H-[1,2,3]triazol-4-yl)-amide] | 198 | 620 | 230 |
| Cn1ccc(NC(=O)c2cc(Oc3ccc(S(C)(=O)=O)cc3)c3c(c2F)OC(C)(C)C3)n1 [Example 190, 7-Fluoro-4-(4-methanesulfonyl-phenoxy)-2,2-dimethyl-2,3-dihydro-benzofuran-6-carboxylic acid (1-methyl-1H-pyrazol-3-yl)-amide] | 83.9 | 7300 | 138 |
| Cn1ncc(NC(=O)c2cc(Oc3ccc(S(C)(=O)=O)cc3)cc3c2CC(C)(C)O3)n1 [Example 198, 6-(4-Methanesulfonyl-phenoxy)-2,2-dimethyl-2,3-dihydro-benzofuran-4-carboxylic acid (2-methyl-2H-[1,2,3]triazol-4-yl)-amide] | 51.4 | > 10000 | – |
| Cn1ccc(NC(=O)c2cc(Oc3ccc(S(C)(=O)=O)cc3)c3c(c2)OC(CO)C3)n1 (stereo not drawn) [Example 200, 2-Hydroxymethyl-4-(4-methanesulfonyl-phenoxy)-2,3-dihydro-benzofuran-6-carboxylic acid (1-methyl-1H-pyrazol-3-yl)-amide] | 113 | 2900 | 147 |
| COCC1Cc2c(Oc3ccc(S(C)(=O)=O)cc3)cc(C(=O)Nc3ccn(C)n3)cc2O1 (stereo not drawn) [Example 201, 4-(4-Methanesulfonyl-phenoxy)-2-methoxymethyl-2,3-dihydro-benzofuran-6-carboxylic acid (1-methyl-1H-pyrazol-3-yl)-amide] | 107 | 2800 | 137 |
| Cn1ccc(NC(=O)c2cc(Oc3ccc(C(=O)N4CCC4)c(F)c3)c3c(c2)OC(CO)C3)n1 (stereo not drawn) [Example 202, 4-[4-(Azetidine-1-carbonyl)-3-fluoro-phenoxy]-2-hydroxymethyl-2,3-dihydro-benzofuran-6-carboxylic acid (1-methyl-1H-pyrazol-3-yl)-amide] | 121 | 360 | 108 |
| Cc1ccc(NC(=O)c2cc(Oc3ccc(C(=O)N4CCC4)c(F)c3)c3c(c2)OC(CO)C3)nc1 (stereo not drawn) [Example 203, 4-[4-(Azetidine-1-carbonyl)-3-fluoro-phenoxy]-2-hydroxymethyl-2,3-dihydro-benzofuran-6-carboxylic acid (5-methyl-pyridin-2-yl)-amide] | 82.6 | 810 | 91 |

Results, then the compound that gave them:

| activation at 10 µM [%] | EC50 [nM] | Emax [%] | Compound |
| --- | --- | --- | --- |
| 248 | 104 | 227 | Cn1ccc(NC(=O)c2cc(Oc3ccc(-c4ncon4)c(F)c3)c3c(c2)OC(C)(C)C3)n1 [Example 185, 4-(3-Fluoro-4-[1,2,4]oxadiazol-3-yl-phenoxy)-2,2-dimethyl-2,3-dihydro-benzofuran-6-carboxylic acid (1-methyl-1H-pyrazol-3-yl)-amide] |
| 178 | > 10000 | – | Cn1ccc(NC(=O)c2cc(Oc3ccc(-c4ncon4)cc3)c3c(c2)OC(C)(C)C3)n1 [Example 187, 2,2-Dimethyl-4-(4-[1,2,4]oxadiazol-3-yl-phenoxy)-2,3-dihydro-benzofuran-6-carboxylic acid (1-methyl-1H-pyrazol-3-yl)-amide] |
| 219 | 870 | 245 | Cn1ccc(NC(=O)c2cc(Oc3ccc(-c4ncon4)c(Cl)c3)c3c(c2)OC(C)(C)C3)n1 [Example 189, 4-(3-Chloro-4-[1,2,4]oxadiazol-3-yl-phenoxy)-2,2-dimethyl-2,3-dihydro-benzofuran-6-carboxylic acid (1-methyl-1H-pyrazol-3-yl)-amide] |
| 91.2 | 1700 | 119 | Cn1ccc(NC(=O)c2cc(Oc3ccc(C(=O)N4CCC4)cc3)c3c(c2F)OC(C)(C)C3)n1 [Example 191, 4-[4-(Azetidine-1-carbonyl)-phenoxy]-7-fluoro-2,2-dimethyl-2,3-dihydro-benzofuran-6-carboxylic acid (1-methyl-1H-pyrazol-3-yl)-amide] |
| 249 | 2100 | 285 | Cn1ccc(NC(=O)c2cc3c(c(Oc4ccc(S(C)(=O)=O)cc4)c2F)CC(C)(C)O3)n1 [Example 192, 5-Fluoro-4-(4-methanesulfonyl-phenoxy)-2,2-dimethyl-2,3-dihydro-benzofuran-6-carboxylic acid (1-methyl-1H-pyrazol-3-yl)-amide] |
| 116 | 8800 | 237 | Cn1ccc(NC(=O)c2cc(OC3CN(S(C)(=O)=O)C3)c3c(c2)OC(C)(C)C3)n1 [Example 193, 4-(1-Methanesulfonyl-azetidin-3-yloxy)-2,2-dimethyl-2,3-dihydro-benzofuran-6-carboxylic acid (1-methyl-1H-pyrazol-3-yl)-amide] |
| 146 | 5000 | 263 | Cn1ncc(NC(=O)c2cc(OC3CN(S(C)(=O)=O)C3)c3c(c2)OC(C)(C)C3)n1 [Example 194, 4-(1-Methanesulfonyl-azetidin-3-yloxy)-2,2-dimethyl-2,3-dihydro-benzofuran-6-carboxylic acid (2-methyl-2H-[1,2,3]triazol-4-yl)-amide] |
| 98.9 | > 10000 | – | CC(=O)N1CC(Oc2cc(C(=O)Nc3cnn(C)n3)cc3c2CC(C)(C)O3)C1 [Example 195, 4-(1-Acetyl-azetidin-3-yloxy)-2,2-dimethyl-2,3-dihydro-benzofuran-6-carboxylic acid (2-methyl-2H-[1,2,3]triazol-4-yl)-amide] |
| 62 | > 10000 | – | CC(=O)N1CC(Oc2cc(C(=O)Nc3ccn(C)n3)cc3c2CC(C)(C)O3)C1 [Example 196, 4-(1-Acetyl-azetidin-3-yloxy)-2,2-dimethyl-2,3-dihydro-benzofuran-6-carboxylic acid (1-methyl-1H-pyrazol-3-yl)-amide] |
| 77.6 | > 10000 | – | Cn1ccc(NC(=O)c2cc(Oc3ccc(C(=O)N4CCC4)c(F)c3)cc3c2CC(C)(C)O3)n1 [Example 197, 6-[4-(Azetidine-1-carbonyl)-3-fluoro-phenoxy]-2,2-dimethyl-2,3-dihydro-benzofuran-4-carboxylic acid (1-methyl-1H-pyrazol-3-yl)-amide] |
| 40.3 | > 10000 | – | Cn1ccc(NC(=O)c2cc(Oc3ccc(S(C)(=O)=O)cc3)cc3c2CC(C)(C)O3)n1 [Example 199, 6-(4-Methanesulfonyl-phenoxy)-2,2-dimethyl-2,3-dihydro-benzofuran-4-carboxylic acid (1-methyl-1H-pyrazol-3-yl)-amide] |
